Measured values published in ChEMBL document CHEMBL3352285, “In vitro anti-inflammatory effects of diterpenoids and sesquiterpenoids from traditional Chinese medicine Siegesbeckia pubescens” (Bioorg Med Chem Lett, 2014).
Converted amounts (≈) assume the structure as drawn.

What was measured:
Neutrophil [1] = experiment: Inhibition of FMLP/CB-induced elastase release in human neutrophils at 10 ug/ml after 5 mins by spectrophotometry; type: functional
Neutrophil [2] = experiment: Inhibition of FMLP/CB-induced superoxide anion generation in human neutrophils at 10 ug/ml by ferricytochrome c reduction method; type: functional
[3] = Cytotoxicity against human neutrophils at 10 ug/ml after 15 mins by LDH release assay; type: cell-based; settings: neutrophil, 0.25 h
Neutrophil [4] = experiment: Inhibition of FMLP/CB-induced elastase release in human neutrophils after 5 mins by spectrophotometry; type: functional, cell-based
Neutrophil [5] = experiment: Inhibition of FMLP/CB-induced superoxide anion generation in human neutrophils by ferricytochrome c reduction method; type: functional, cell-based
RAW264.7 = experiment: Inhibition of NO production in LPS/IFN-gamma activated mouse RAW264.7 cells after 24 hrs by Griess assay; type: functional, cell-based
[6] = Mus musculus, RAW264.7, 24 h, read-out: IC50

In the case of `C[C@@]12CCC[C@@](C)(C(=O)O)[C@H]1CC[C@]13C[C@H](CO)[C@@H](CC[C@H]12)C3`, the inhibition at 10 µg/mL (Neutrophil [1]) is reported as 45.9%, the inhibition at 10 µg/mL (Neutrophil [2]) is reported as 89.5% and the Activity [3] is reported as “Non-toxic”. It also gave an IC50 (Neutrophil [4]) of over 10 µg/mL and an IC50 (Neutrophil [5]) of 3.72 µg/mL (≈ 11.6 µM).
With `C[C@]1(CO)[C@H]2CCC3=C[C@@](C)(C(O)CO)CC[C@H]3[C@]2(C)CC[C@H]1O` (stereo partly drawn) the inhibition at 10 µg/mL (Neutrophil [1]) was -0.74%, the inhibition at 10 µg/mL (Neutrophil [2]) was 17.8% and the IC50 (Neutrophil [4]) was over 10 µg/mL. For the same molecule, the IC50 (Neutrophil [5]) was over 10 µg/mL.
In the case of `C[C@@]12C[C@H](O)C[C@@](C)(C(=O)O)[C@H]1CCC1=C[C@@](C)(C(O)CO)CC[C@H]12` (stereo partly drawn), the inhibition at 10 µg/mL (Neutrophil [1]) is reported as 7.65%, the inhibition at 10 µg/mL (Neutrophil [2]) is reported as 5.18% and the IC50 (Neutrophil [4]) is reported as over 10 µg/mL. For the same molecule, the IC50 (Neutrophil [5]) was over 10 µg/mL.
In the case of `C[C@@]1(CO)CC(=O)C[C@@]2(C)[C@@H]3CC[C@](C)(C(O)CO)C=C3CC[C@H]12` (stereo partly drawn), the inhibition at 10 µg/mL (Neutrophil [1]) is reported as -0.75%, the inhibition at 10 µg/mL (Neutrophil [2]) is reported as 10.2% and the IC50 (Neutrophil [4]) is reported as over 10 µg/mL. For the same molecule, the IC50 (Neutrophil [5]) was over 10 µg/mL.
Molecule `C[C@@]1(CO)C[C@@H](O)C[C@@]2(C)[C@@H]3CC[C@](C)(C(O)CO)C=C3CC[C@H]12` (stereo partly drawn) has an inhibition at 10 µg/mL (Neutrophil [1]) of 6.78%, an inhibition at 10 µg/mL (Neutrophil [2]) of 7.88% and an IC50 (Neutrophil [4]) of over 10 µg/mL. For the same molecule, the IC50 (Neutrophil [5]) was over 10 µg/mL.
`CC1(C)[C@H]2CCC3=C[C@@](C)(C(O)CO)CC[C@H]3[C@]2(C)CC[C@H]1O[C@@H]1O[C@H](CO)[C@@H](O)[C@H](O)[C@H]1O` (stereo partly drawn) showed an inhibition at 10 µg/mL (Neutrophil [1]) of 5.93%, an inhibition at 10 µg/mL (Neutrophil [2]) of 5.86% and an IC50 (Neutrophil [4]) of over 10 µg/mL. The IC50 (Neutrophil [5]) was over 10 µg/mL.
Molecule `C=C1C(=O)O[C@H]2C[C@@H](C)[C@@H]3CC[C@H](O)[C@@]3(C)C[C@H]12` [PSEUDOGUAIANOLIDE] has an inhibition at 10 µg/mL (Neutrophil [1]) of 46.9%, an inhibition at 10 µg/mL (Neutrophil [2]) of 17% and an IC50 (Neutrophil [4]) of over 10 µg/mL. It also gave an IC50 (Neutrophil [5]) of over 10 µg/mL and an IC50 (RAW264.7; [6]) of 14.9 µM.
With `C=C(C)C(=O)O[C@H]1[C@H]2C(=C)C(=O)O[C@@H]2/C=C(\CO)CC/C=C(/C=O)[C@H]1OCC` the inhibition at 10 µg/mL (Neutrophil [1]) was 22.3%, the inhibition at 10 µg/mL (Neutrophil [2]) was 72.4% and the Activity [3] was “Non-toxic”. For the same molecule, the IC50 (Neutrophil [4]) was over 10 µg/mL, the IC50 (Neutrophil [5]) was 6.46 µg/mL (≈ 16.5 µM) and the IC50 (RAW264.7; [6]) was 6.8 µM.
In the case of `C=C1C(=O)O[C@@H]2C[C@]3(C)[C@@H](CCC(C)O)[C@@H]3C[C@H]12` (stereo partly drawn), the inhibition at 10 µg/mL (Neutrophil [1]) is reported as 39%, the inhibition at 10 µg/mL (Neutrophil [2]) is reported as 11.6% and the IC50 (Neutrophil [4]) is reported as over 10 µg/mL. It also gave an IC50 (Neutrophil [5]) of over 10 µg/mL and an IC50 (RAW264.7; [6]) of 18.9 µM.
In the case of `COC(=O)[C@]1(C)CCC[C@@]2(C)[C@@H]3CC[C@@H]4C[C@@]3(CC[C@@H]21)C[C@@H]4CO`, the inhibition at 10 µg/mL (Neutrophil [1]) is reported as 27.7%, the inhibition at 10 µg/mL (Neutrophil [2]) is reported as 90.7% and the Activity [3] is reported as “Toxic”. For the same molecule, the IC50 (Neutrophil [4]) was over 10 µg/mL and the IC50 (Neutrophil [5]) was 5.22 µg/mL (≈ 15.6 µM).
Work on `CC1(C)[C@H](O)CC[C@@]2(C)[C@@H]3CC[C@](C)(C(O)CO)C=C3CC[C@H]12` (stereo partly drawn) yielded an inhibition at 10 µg/mL (Neutrophil [1]) of 21.9%, an inhibition at 10 µg/mL (Neutrophil [2]) of 35.8% and an IC50 (Neutrophil [4]) of over 10 µg/mL. The IC50 (Neutrophil [5]) was over 10 µg/mL.
`CC(=O)OC[C@@]1(C(=O)O)CCC[C@@]2(C)[C@@H]3CC[C@H]4C[C@@]3(CC[C@H]12)C[C@@]4(O)CO` showed an inhibition at 10 µg/mL (Neutrophil [1]) of 37%, an inhibition at 10 µg/mL (Neutrophil [2]) of 32.1% and an IC50 (Neutrophil [4]) of over 10 µg/mL. The IC50 (Neutrophil [5]) was over 10 µg/mL.
In the case of `CC(=O)OC[C@@]1(C(=O)O)CCC[C@@]2(C)[C@@H]3CC[C@H]4C[C@@]3(CC[C@H]12)C[C@H]4COC(=O)C(C)C`, the inhibition at 10 µg/mL (Neutrophil [1]) is reported as 77.8%, the inhibition at 10 µg/mL (Neutrophil [2]) is reported as 35.2% and the Activity [3] is reported as “Non-toxic”. It also gave an IC50 (Neutrophil [4]) of 3.64 µg/mL (≈ 8.11 µM) and an IC50 (Neutrophil [5]) of over 10 µg/mL.
`CC(=O)OCC(O)[C@]1(C)C=C2CC[C@@H]3C(C)(C)[C@H](O[C@@H]4O[C@H](CO)[C@@H](O)[C@H](O)[C@H]4O)CC[C@@]3(C)[C@@H]2CC1` (stereo partly drawn) gave an inhibition at 10 µg/mL (Neutrophil [1]) of 4.44%, an inhibition at 10 µg/mL (Neutrophil [2]) of 8.87% and an IC50 (Neutrophil [4]) of over 10 µg/mL. For the same molecule, the IC50 (Neutrophil [5]) was over 10 µg/mL.
`C=C(C)C(=O)O[C@H]1[C@H]2C(=C)C(=O)O[C@@H]2/C=C(\CO)CC/C=C(/C=O)[C@H]1O` gave an inhibition at 10 µg/mL (Neutrophil [1]) of 20.8%, an inhibition at 10 µg/mL (Neutrophil [2]) of 9.01% and an IC50 (Neutrophil [4]) of over 10 µg/mL. For the same molecule, the IC50 (Neutrophil [5]) was over 10 µg/mL and the IC50 (RAW264.7; raw264.7) was “Not Active”.
Molecule `CC1(C)C[C@H]2[C@H]1CC[C@@]1(C)C[C@]2(O)CC[C@@H]1O` has an inhibition at 10 µg/mL (Neutrophil [1]) of 5.93%, an inhibition at 10 µg/mL (Neutrophil [2]) of 10.2% and an IC50 (Neutrophil [4]) of over 10 µg/mL. The IC50 (Neutrophil [5]) was over 10 µg/mL and the IC50 (RAW264.7; raw264.7) was “Not Active”.
For `O=c1cc(N2CCOCC2)oc2c(-c3ccccc3)cccc12` [LY-294002], the IC50 (Neutrophil [4]) was 0.92 µg/mL (≈ 2.99 µM) and the IC50 (Neutrophil [5]) was 0.4 µg/mL (≈ 1.3 µM).
With `CC(=O)OC[C@@]1(C(=O)O)CCC[C@@]2(C)[C@@H]3CC[C@H]4C[C@@]3(CC[C@H]12)C[C@@]4(O)COC(=O)C(C)C` the inhibition at 10 µg/mL (Neutrophil [1]) was 60.4%, the inhibition at 10 µg/mL (Neutrophil [2]) was 46.7% and the Activity [3] was “Non-toxic”. It also gave an IC50 (Neutrophil [4]) of 6.82 µg/mL (≈ 14.7 µM) and an IC50 (Neutrophil [5]) of over 10 µg/mL.
`C[C@@]12CCC[C@@](CO)(C(=O)O)[C@H]1CC[C@]13C[C@@H](CO)[C@@H](CC[C@H]12)C3` gave an inhibition at 10 µg/mL (Neutrophil [1]) of 15.7%, an inhibition at 10 µg/mL (Neutrophil [2]) of 7.81% and an IC50 (Neutrophil [4]) of over 10 µg/mL. The IC50 (Neutrophil [5]) was over 10 µg/mL.
`CC1(C)OCC([C@]2(C)C=C3CC[C@@H]4[C@](C)(CO)C[C@@H](O)C[C@@]4(C)[C@@H]3CC2)O1` (stereo partly drawn) gave an inhibition at 10 µg/mL (Neutrophil [1]) of 21.8%, an inhibition at 10 µg/mL (Neutrophil [2]) of 38.4% and an IC50 (Neutrophil [4]) of over 10 µg/mL. For the same molecule, the IC50 (Neutrophil [5]) was over 10 µg/mL.
With `C[C@@]12CCC[C@@](C)(C(=O)O)[C@H]1CC[C@@]13C[C@H](CC[C@H]12)[C@@](O)(CO)C3` the inhibition at 10 µg/mL (Neutrophil [1]) was 70.8%, the inhibition at 10 µg/mL (Neutrophil [2]) was 89.2% and the Activity [3] was “Non-toxic”. For the same molecule, the IC50 (Neutrophil [4]) was 4.34 µg/mL (≈ 12.9 µM) and the IC50 (Neutrophil [5]) was 3.63 µg/mL (≈ 10.8 µM).
`CC1=CC(=O)CC(C)(C)[C@@]1(O)/C=C/C(C)O` (stereo partly drawn) gave an inhibition at 10 µg/mL (Neutrophil [1]) of 3.42%, an inhibition at 10 µg/mL (Neutrophil [2]) of 3.57% and an IC50 (Neutrophil [4]) of over 10 µg/mL. The IC50 (Neutrophil [5]) was over 10 µg/mL and the IC50 (RAW264.7; raw264.7) was “Not Active”.
For `CC(C)C(=O)OC[C@@H]1C[C@@]23CC[C@@H]4[C@](CO)(C(=O)O)CCC[C@@]4(C)[C@@H]2CC[C@H]1C3`, the inhibition at 10 µg/mL (Neutrophil [1]) was 83.2%, the inhibition at 10 µg/mL (Neutrophil [2]) was 67% and the Activity [3] was “Non-toxic”. It also gave an IC50 (Neutrophil [4]) of 4.73 µg/mL (≈ 11.6 µM) and an IC50 (Neutrophil [5]) of 6.74 µg/mL (≈ 16.6 µM).
For `C[C@@]12CCC[C@@](C)(C(=O)O)[C@H]1CC[C@@]13C[C@H](CC[C@H]12)[C@H](C(=O)O)C3`, the inhibition at 10 µg/mL (Neutrophil [1]) was 31.5%, the inhibition at 10 µg/mL (Neutrophil [2]) was 69.6% and the Activity [3] was “Non-toxic”. The IC50 (Neutrophil [4]) was over 10 µg/mL and the IC50 (Neutrophil [5]) was 5.59 µg/mL (≈ 16.7 µM).
`C=C1C(=O)O[C@@H]2C[C@]3(C)[C@@H](CCC(C)=O)[C@@H]3C[C@H]12` gave an inhibition at 10 µg/mL (Neutrophil [1]) of 11.2%, an inhibition at 10 µg/mL (Neutrophil [2]) of 41.2% and an IC50 (Neutrophil [4]) of over 10 µg/mL. The IC50 (Neutrophil [5]) was over 10 µg/mL and the IC50 (RAW264.7; [6]) was 6.4 µM.
